Reference: ChEMBL document CHEMBL4118101 (Bioorg Med Chem, 2018)
In brackets after ≈: the same amount, converted by molar mass. Activity calls are given as the source filed them. The calls are words filed in the database; no cut-off is given here.

Experiments:
Candida albicans [1] = test: Antifungal activity against fluconazole/ITC-susceptible Candida albicans ATCC MYA-2876 measured after 48 hrs by CLSI M27-A3 protocol based method; format: functional
Candida albicans [2] = test: Inhibition of Candida albicans ATCC 10231 ERG11 assessed as ergosterol composition of total sterols at 0.12 ug/ml incubated for 10 mins followed by saponification for 2 hrs by GC-MS method (reference value: 100%); parameters: scale not given: the % may be the effect or the level left
Candida albicans [3] = test: Induction of membrane permeabilization in Candida albicans ATCC 10231 assessed as membrane disruption at 4 times MIC after 1 hr by propidium iodide staining based fluorescence microscopy; format: functional, organism-based
[4] = Hemolytic activity in mouse RBC at 7.8 ug/ml after 1 hr relative to control; format: ADME, cell-based, Erythrocyte; details: mouse red blood cells (erythrocytes), read-out: Activity
Candida albicans [5] = test: Inhibition of Candida albicans ATCC 10231 ERG11 assessed as 14alphamethyl ergosta-8,24(28)-diene-3beta,6alpha-diol composition of total sterols at 0.12 ug/ml incubated for 10 mins followed by saponification for 2 hrs by GC-MS method relative to control; parameters: scale not given: the % may be the effect or the level left
[6] = Hemolytic activity in mouse RBC at 1.95 ug/ml after 1 hr relative to control; format: ADME, cell-based, Erythrocyte; details: mouse red blood cells (erythrocytes), at 1.95 µg/mL, read-out: Activity
Candida parapsilosis [7] = test: Antifungal activity against Candida parapsilosis ATCC 22019 measured after 48 hrs by CLSI M27-A3 protocol based method; format: functional
Candida albicans [8] = test: Fungistatic activity against Candida albicans ATCC 10231 at 4 times MIC incubated for 24 hrs by time kill assay; format: functional, organism-based
Cryptococcus neoformans [9] = test: Antifungal activity against Cryptococcus neoformans isolate CN3 measured after 48 hrs by CLSI M27-A3 protocol based method; format: functional
Aspergillus nidulans [10] = test: Antifungal activity against Aspergillus nidulans ATCC 38163 measured after 48 hrs in presence of 10% FBS by CLSI M38-A2 protocol based method; format: functional; details: ATCC 38163, 48 h
Candida albicans [11] = test: Antifungal activity against fluconazole/ITC-resistant Candida albicans ATCC MYA-1237 measured after 48 hrs by CLSI M27-A3 protocol based method; format: functional
Erythrocyte = test: (§1) Hemolytic activity in mouse RBC at 62.5 ug/ml after 1 hr relative to control; format: ADME, cell-based; details: erythrocyte, 1 h
Candida parapsilosis [12] = test: Antifungal activity against Candida parapsilosis isolate CP2 measured after 48 hrs by CLSI M27-A3 protocol based method; format: functional
Aspergillus nidulans [13] = test: Antifungal activity against Aspergillus nidulans ATCC 38163 measured after 48 hrs by CLSI M38-A2 protocol based method; format: functional; details: ATCC 38163, 48 h
Candida parapsilosis [14] = test: Fungistatic activity against Candida parapsilosis ATCC 22019 up to 4 times MIC incubated for 24 hrs by time kill assay; format: functional, organism-based
Nakaseomyces glabratus [15] = test: Antifungal activity against Candida glabrata isolate CG3 measured after 48 hrs by CLSI M27-A3 protocol based method; format: functional
Candida albicans [16] = test: Inhibition of Candida albicans ATCC 10231 ERG11 assessed as lanosterol composition of total sterols at 0.12 ug/ml incubated for 10 mins followed by saponification for 2 hrs by GC-MS method relative to control; parameters: scale not given: the % may be the effect or the level left
Candida albicans [17] = test: Antifungal activity against fluconazole/ITC-resistant Candida albicans ATCC 90819 measured after 48 hrs by CLSI M27-A3 protocol based method; format: functional
Nakaseomyces glabratus [18] = test: Antifungal activity against Candida glabrata isolate CG2 measured after 48 hrs by CLSI M27-A3 protocol based method; format: functional
Pichia kudriavzevii = test: Antifungal activity against Candida krusei ATCC 6258 measured after 48 hrs by CLSI M27-A3 protocol based method; format: functional
Candida parapsilosis [19] = test: Antifungal activity against Candida parapsilosis isolate CP1 measured after 48 hrs by CLSI M27-A3 protocol based method; format: functional
Candida albicans [20] = test: Antifungal activity against Candida albicans ATCC 64124 measured after 48 hrs by CLSI M27-A3 protocol based method; format: functional
Nakaseomyces glabratus [21] = test: Antifungal activity against Candida glabrata isolate CG1 measured after 48 hrs by CLSI M27-A3 protocol based method; format: functional
Candida albicans [22] = test: Antifungal activity against fluconazole/ITC-susceptible Candida albicans ATCC MYA-2310 measured after 48 hrs by CLSI M27-A3 protocol based method; format: functional
Nakaseomyces glabratus [23] = test: Antifungal activity against Candida glabrata ATCC 2001 measured after 48 hrs by CLSI M27-A3 protocol based method; format: functional, CBS 138
[24] = Hemolytic activity in mouse RBC at 3.9 ug/ml after 1 hr relative to control; format: ADME, cell-based, Erythrocyte; details: mouse red blood cells (erythrocytes), read-out: Activity
Candida albicans [25] = test: Antifungal activity against fluconazole/ITC-resistant Candida albicans ATCC MYA-1003 measured after 48 hrs by CLSI M27-A3 protocol based method; format: functional
[26] = Hemolytic activity in mouse RBC at […] ug/ml after 1 hr relative to control; format: ADME, cell-based, Erythrocyte; details: mouse red blood cells (erythrocytes), read-out: Activity
Candida parapsilosis [27] = test: Antifungal activity against Candida parapsilosis ATCC 22019 measured after 48 hrs in presence of 10% FBS by CLSI M27-A3 protocol based method; format: functional
Cryptococcus neoformans [28] = test: Antifungal activity against Cryptococcus neoformans isolate CN2 measured after 48 hrs by CLSI M27-A3 protocol based method; format: functional
[29] = Hemolytic activity in mouse RBC at 0.48 ug/ml after 1 hr relative to control; format: ADME, cell-based, Erythrocyte; details: mouse red blood cells (erythrocytes), read-out: Activity
Candida albicans [30] = test: Inhibition of Candida albicans ATCC 10231 ERG11 assessed as eburicol composition of total sterols at 0.12 ug/ml incubated for 10 mins followed by saponification for 2 hrs by GC-MS method relative to control; parameters: scale not given: the % may be the effect or the level left
Aspergillus terreus = test: Antifungal activity against Aspergillus terreus ATCC MYA-3633 measured after 48 hrs by CLSI M38-A2 protocol based method; format: functional; details: ATCC MYA-3633, 48 h
Candida parapsilosis [31] = test: Antifungal activity against Candida parapsilosis isolate CP3 measured after 48 hrs by CLSI M27-A3 protocol based method; format: functional
Candida albicans [32] = test: Antifungal activity against Candida albicans ATCC 10231 measured after 48 hrs in presence of 10% FBS by CLSI M27-A3 protocol based method; format: functional
[33] = Hemolytic activity in mouse RBC at 31.3 ug/ml after 1 hr relative to control; format: ADME, cell-based, Erythrocyte; details: mouse red blood cells (erythrocytes), at 31.3 µg/mL, read-out: Activity
Aspergillus flavus = test: Antifungal activity against Aspergillus flavus ATCC MYA-3631 measured after 48 hrs by CLSI M38-A2 protocol based method; format: functional; details: ATCC MYA-3631, 48 h
Cryptococcus neoformans [34] = test: Antifungal activity against Cryptococcus neoformans isolate CN1 measured after 48 hrs by CLSI M27-A3 protocol based method; format: functional; details: isolate CN1, 48 h
HEK293 = test: Cytotoxicity against HEK293 cells at 7.8 ug/ml after 24 hrs by resazurin based assay; format: cell-based; details: human, hek293, 24 h
[35] = as §1; format: ADME, cell-based, Erythrocyte; details: mouse red blood cells (erythrocytes), read-out: Activity
Candida albicans [36] = test: Antifungal activity against Candida albicans ATCC 10231 measured after 48 hrs by CLSI M27-A3 protocol based method; format: functional; details: ATCC 10231, 48 h
A549 = test: Cytotoxicity against human A549 cells up to 7.8 ug/ml after 24 hrs by resazurin based assay; format: cell-based; details: a549, 24 h
BEAS-2B = test: Cytotoxicity against human BEAS2B cells up to 7.8 ug/ml after 24 hrs by resazurin based assay; format: cell-based
[37] = Nakaseomyces glabratus, 48 h, read-out: MIC

## C[C@@H](c1ncncc1F)[C@](O)(Cn1cncn1)c1ccc(F)cc1F [VORICONAZOLE]
Candida albicans [1]
  MIC=<50: 5.6 µM (≈ 1.96 µg/mL)
Candida albicans [2]
  Activity: 50.8%
Candida albicans [3]
  Activity: inactive
[4]
  hemolysis at 1 h, 7.8 ug/ml: 11%
Candida albicans [5]
  Activity: 9.86%
[6]
  hemolysis at 1 h, 1.95 ug/ml: 6%
Candida parapsilosis [7]
  MIC=<50: <0.06 µM
Candida albicans [8]
  Activity: Active
Cryptococcus neoformans [9]
  MIC: 0.35 µM (≈ 0.122 µg/mL)
Aspergillus nidulans [10]
  MIC: 0.12 µg/mL
Candida albicans [11]
  MIC: 22.3 µM (≈ 7.79 µg/mL)
Erythrocyte
  Activity: 100%
Candida parapsilosis [12]
  MIC=<50: <0.06 µM
Aspergillus nidulans [13]
  MIC: 0.34 µM (≈ 0.119 µg/mL)
Candida parapsilosis [14]
  Activity: Active
Nakaseomyces glabratus [15]
  MIC: >89.9 µM
Candida albicans [16]
  Activity: 15.2%
Candida albicans [17]
  MIC: 5.6 µM (≈ 1.96 µg/mL)
Nakaseomyces glabratus [18]
  MIC: 11.2 µM (≈ 3.91 µg/mL)
Pichia kudriavzevii
  MIC=<50: 0.34 µM (≈ 0.119 µg/mL)
Candida parapsilosis [19]
  MIC=<50: <0.06 µM
Candida albicans [20]
  MIC: 11.2 µM (≈ 3.91 µg/mL)
Nakaseomyces glabratus [21]
  MIC: 2.76 µM (≈ 0.964 µg/mL)
Candida albicans [22]
  MIC: 2.8 µM (≈ 0.978 µg/mL)
Nakaseomyces glabratus [23]
  MIC: 0.17 to 0.69 µM
[24]
  hemolysis at 1 h, 3.9 ug/ml: 7%
Candida albicans [25]
  MIC: 5.6 µM (≈ 1.96 µg/mL)
[26]
  hemolysis at 1 h, 0.975 ug/ml: 10%
  hemolysis at 1 h, 15.6 ug/ml: 3%
Candida parapsilosis [27]
  MIC=<50: 0.015 µg/mL
Cryptococcus neoformans [28]
  MIC: 2.76 µM (≈ 0.964 µg/mL)
[29]
  hemolysis at 1 h, 0.48 ug/ml: 9%
Candida albicans [30]
  Activity: 1.73%
Aspergillus terreus
  MIC: 0.34 µM (≈ 0.119 µg/mL)
Candida parapsilosis [31]
  MIC=<50: <0.06 µM
Candida albicans [32]
  MIC=<50: 0.48 µg/mL

## CCCCCCCCCCCCCCCCNCC(O)(Cn1cncn1)c1ccc(F)cc1F (centres undefined)
Candida albicans [1]; Candida albicans, ATCC MYA-2876, 48 h
  MIC: 65.4 µM (≈ 31.3 µg/mL)
[33]
  hemolysis at 1 h, 31.3 ug/ml: 4%
Aspergillus flavus
  MIC: > 65.4 µM
[4]
  hemolysis at 1 h, 7.8 ug/ml: 4%
[6]
  hemolysis at 1 h, 1.95 ug/ml: 6%
Cryptococcus neoformans [34]
  MIC: 1 µM (≈ 0.479 µg/mL)
Candida parapsilosis [7]; Lodderomyces parapsilosis, ATCC 22019, 48 h
  MIC: 1 µM (≈ 0.479 µg/mL)
HEK293
  Activity: Non-Toxic
Cryptococcus neoformans [9]; Cryptococcus neoformans, isolate CN3, 48 h, read-out: MIC
  MIC: 1 µM (≈ 0.479 µg/mL)
Candida albicans [11]; Candida albicans, ATCC MYA-1237, 48 h, read-out: MIC
  MIC: > 65.4 µM
[35]
  hemolysis at 1 h, 62.5 ug/ml: 8%
Candida parapsilosis [12]; Lodderomyces parapsilosis, isolate CP2, 48 h
  MIC: 1 µM (≈ 0.479 µg/mL)
Aspergillus nidulans [13]
  MIC: 8.1 µM (≈ 3.88 µg/mL)
Nakaseomyces glabratus [15]; [37]
  MIC: 16.3 µM (≈ 7.8 µg/mL)
Candida albicans [17]; Candida albicans, ATCC 90819, 48 h, read-out: MIC
  MIC: 65.4 µM (≈ 31.3 µg/mL)
Nakaseomyces glabratus [18]; Nakaseomyces glabratus, isolate CG2, 48 h, read-out: MIC
  MIC: 2 µM (≈ 0.957 µg/mL)
Pichia kudriavzevii; Pichia kudriavzevii, ATCC 6258, 48 h
  MIC: 8.1 µM (≈ 3.88 µg/mL)
Candida parapsilosis [19]; Lodderomyces parapsilosis, isolate CP1, 48 h
  MIC: 2 µM (≈ 0.957 µg/mL)
Candida albicans [20]; Candida albicans, ATCC 64124, 48 h, read-out: MIC
  MIC: > 65.4 µM
Candida albicans [36]
  MIC: > 65.4 µM
Nakaseomyces glabratus [21]; [37]
  MIC: 4.1 µM (≈ 1.96 µg/mL)
Candida albicans [22]; Candida albicans, ATCC MYA-2310, 48 h, read-out: MIC
  MIC: 8.1 to 65.4 µM (≈ 3.88 to 31.3 µg/mL)
Nakaseomyces glabratus [23]; Nakaseomyces glabratus, CBS 138, 48 h, read-out: MIC
  MIC: 2 to 65.4 µM (≈ 0.957 to 31.3 µg/mL)
[24]
  hemolysis at 1 h, 3.9 ug/ml: 3%
Candida albicans [25]; Candida albicans, ATCC MYA-1003, 48 h, read-out: MIC
  MIC: > 65.4 µM
A549
  Activity: Non-Toxic
[26]
  hemolysis at 1 h, 0.975 ug/ml: 5%
  hemolysis at 1 h, 15.6 ug/ml: 4%
Cryptococcus neoformans [28]; Cryptococcus neoformans, isolate CN2, 48 h, read-out: MIC
  MIC: 1 µM (≈ 0.479 µg/mL)
[29]
  hemolysis at 1 h, 0.48 ug/ml: 4%
Aspergillus terreus
  MIC: > 65.4 µM
Candida parapsilosis [31]; Lodderomyces parapsilosis, isolate CP3, 48 h
  MIC: 2 µM (≈ 0.957 µg/mL)
BEAS-2B
  Activity: Non-Toxic
